Data from patent publication US20040235019A1, “Diagnostics and therapeutics for the gene expression signature of PPAR-gamma receptor ligand” (Agouron Pharmaceuticals, Inc., priority 2003, published 2004).

What was measured:
[1] = patients; personal communication (Heidi Camp, Pfizer Inc); cited from earlier work
3T3-L1 cells = experiment: Gene profile of 3T3-L1 cells treated with Rosiglitazone after PPARγ1 antisense knockdown; type: cell-based, murine; details: antisense 72 hours
Description: 3T3-L1 cells were treated for 72 hours with an antisense construct whose nucleic acid sequence was complementary to PPARγ1 and treated with Rosiglitazone. As a separate control, 3T3-L1 were cells treated with the antisense construct, but without Rosiglitazone. Gene expression levels were determined using Affymetix microarray analysis. Following the incubation, RNA was extracted from the cells using Trizol (Invitrogen) followed by cleanup using an RNeasy kit (Qiagen) including DNase I treatment. Probes from each of these cell populations were prepared by reverse transcription-polymerase chain reaction (RT-PCR) and subsequently biotin labeled by in vitro transcription using the BioArray High Yield RNA Transcript Labeling Kit (Enzo). The probes were then hybridized to U74Aver2 Affymetrix gene chips. The hybridization was conducted as follows The hybridization was for 16 hours at 45° C. and 60 RPM in a rotisserie box.

Structure (SMILES)	incidence of edema clinically [1]	genes of Tables I and II also up- or down-regulated by Rosiglitazone in cells treated with PPARγ1 antisense nucleic acid (3T3-L1 cells)
Cc1oc(-c2ccccc2)nc1CCOc1ccc(C[C@H](Nc2ccccc2C(=O)c2ccccc2)C(=O)O)cc1 [Farglitazar]	most frequent incidence of edema clinically	
CN(CCOc1ccc(CC2SC(=O)NC2=O)cc1)c1ccccn1 (centres unmarked) [Rosiglitazone]		91%
